Laboratory results taken from publication PMC9818021, “Targets, Mechanisms and Cytotoxicity of Half-Sandwich Ir(III) Complexes Are Modulated by Structural Modifications on the Benzazole Ancillary Ligand” (Cancers, 2022).
Like-named read-outs stand apart in the source and are kept apart here.

How the values were obtained:
[1] = Acid dissociation constants from absorbance vs pH; format: physicochemical; settings: for pKa1: water dissociation to give the hydroxo complex; for pKa2: NH dissociation to give the N anion; for pKa: free ligand
Procedure: The pH measurements were carried out with a Metrohm 16 DMS Titrino pH meter fitted out with a combined glass electrode with a 3 M KCl solution as a liquid junction. HClO4 and NaOH solution were used to adjust the pH.
(§1) The UV-vis measurements were performed with a Hewlett-Packard 8453A (Agilent Technologies, Palo Alto, CA, USA) photodiode array spectrophotometer with a Peltier temperature control system. Titrations were carried out at 25 °C by adding increasing amounts of DNA solution to the iridium complex solution. The pKa values were measured by analysing the absorbance change of iridium complex solutions recorded at different pH values. The melting experiments were carried out using a DNA solution varying the CIr-complex/CDNA (CD/CP) ratio from 0 to 1, keeping CP constant and recording the absorbance spectra while heating from 25 to 90 °C at 0.3 °C/min.

[2] = Aquation/solvolysis kinetics (UV-vis); format: physicochemical
Procedure: Aquation/solvolysis. Chloride displacement was qualitatively monitored by ^1H-NMR for some of the complexes in DMSO-d6. The replacement of the chloride by a DMSO molecule was observed as some peaks shifted and some new peaks appeared corresponding to the methyl groups of the DMSO molecule. Aquation/solvolysis equilibria were studied by kinetic UV-vis measurements.
as §1
The slow kinetic measurements were performed with the previous spectrophotometer while the fast kinetic measurements were performed in a stopped flow Bio-Logic SFM-300 spectrophotometer with an absorbance detection system and dead time below 3 ms. The kinetic curves, obtained averaging out at least five shots, were analysed with the Jandel (AISN software, Mapleton, OR) fitting package.

[3] = tested on: A2780 (epithelial ovarian carcinoma cells); assay: MTT cytotoxicity assay; format: cell-based, human; settings: A2780, 48 h
Procedure: (§2) Cell culture. Epithelial ovarian carcinoma cells (A2780) that acquired resistance to cisplatin epithelial ovarian carcinoma cells (A2780cis), colon adenocarcinoma cells (SW480) and epithelial lung adenocarcinoma cells (A549) were provided by Sigma Aldrich. A549 and SW480 cells were grown in Dulbecco′s Modified Eagle′s Medium (DMEM), supplemented with 10% Fetal Bovine Serum (FBS) and 1% penicillin, streptomycin and 1% glutamine for A549 and 1% amphotericin B for SW480. The A2780 and A2780cis were grown in RPMI 1640 supplemented with 10% Fetal Bovine Serum (FBS), 1% glutamine and 1% penicillin, streptomycin and amphotericin B. All cells were incubated in a humidified incubator at 37 °C under a 5% CO2 atmosphere and grown in 100 mm culture dishes to approximately 70–80% confluence. For subculturing, cells were detached with Trypsin-EDTA (Sigma). A549-gal were derived from A549 cultured in glucose-free medium supplemented with 10 mM galactose (Sigma) for at least 10 passes.
(§3) Cytotoxicity. MTT Assay and IC50 estimation. The cytotoxicity of 1[C,NH-Cl], 2[C,NMe-Cl], 3[N,NH-Cl]Cl, 4[N,NMe-Cl]Cl, 5[CNH2,NH-Cl]Cl, 6[CNH2,S-Cl]Cl, 7[CO,NH-Cl] and 8[CO,S-Cl] in A2780, A2780cis, SW480 and A549 carcinoma cells was evaluated by the MTT colorimetric assay. Cells were seeded in 96-well plates at 5000 cells per well and incubated at 37 °C, 5% CO2. After 24 h, the medium was removed and replaced with fresh medium with different concentrations of the compounds under study, and they were incubated for 48 h. Final DMSO concentration was kept below 0.7% in wells. For a negative control, one sequence of cells was left untreated and for vehicle control, cells treated with DMSO were included. For cell viability experiments preincubating with NAC (N-Acetyl-L-Cysteine), the cells were pre-treated with NAC, 10 mM for 2 h before the incubation with complex 1[C,NH-Cl] for 24 h. Then, the medium was removed from the wells, and 100 µL MTT (5 mg/mL) was added. After an incubation time of 4 h, 100 μL of solubilizing detergent solution (SDS, 10% in HCL 0.01 M) was added and kept in the incubator overnight. Cell growth inhibition was detected by measuring the absorbance of each well at 595 nm using a BioTek Cytation5 microplate reader. Each test was repeated in quadruplicate in three independent experiments for each cell line. The percentage of survival cells was calculated using absorbance measurements compared with control and the IC50 estimation using Graph Pad Prism version 6.01.

[4] = tested on: A2780cis (ovarian, acquired resistance to cisplatin); assay: MTT cytotoxicity assay; format: cell-based, human; settings: A2780cis, 48 h
Procedure: as §2, §3

[5] = tested on: A549 (epithelial lung adenocarcinoma cells); assay: MTT cytotoxicity assay; format: cell-based, human; settings: A549, 48 h
Procedure: as §2, §3

[6] = tested on: SW480 (colon adenocarcinoma cells); assay: MTT cytotoxicity assay; format: cell-based, human; settings: SW480, 48 h
Procedure: as §2, §3

Qualitative solubility = format: physicochemical; settings: 1-2 mg, solvent up to 1 mL
Procedure: Solubility. The solubility of the complexes was qualitatively assessed. Different solvents were added drop-by-drop while shaking to a small amount of complex (around 1–2 mg) in a vial until the solvent added exceeded 1 mL. Afterwards, it was checked if the solid was or not completely dissolved and/or if the solution got coloured.

Cc1c(C)c(C)[c-](C)c1C.Cn1c2[n+](c3ccccc31)[Ir]([OH2+])[n+]1ccccc1-2 [4[N,NMe-H2O]2+]
pKa1 [1]: 7.48 ± 0.01

Cc1c(C)c(C)[c-](C)c1C.Cn1c2[n+](c3ccccc31)[Ir]([S+](C)(C)=O)[c]1ccccc1-2 [2[C,NMe-DMSO]+]
Acid-base equilibrium ([1]; absorbance vs pH): did not exhibit any acid–base equilibrium

C[S+](C)(=O)[Ir]1[O]c2ccccc2-c2sc3ccccc3[n+]21.Cc1c(C)c(C)[c-](C)c1C [8[CO,S-DMSO]+]
kDMSO (Cl-complex to DMSO-complex) ([2]; in DMSO): (3.11 ± 0.25) × 10^−4 s-1

Cc1c(C)c(C)[c-](C)c1C.[OH2+][Ir]1[NH2+]c2ccccc2-c2[nH]c3ccccc3[n+]21 [5[CNH2,NH-H2O]2+]
pKa2 [1]: 11.30 ± 0.17
pKa1 [1]: 7.48 ± 0.04

Cc1c(C)c(C)[c-](C)c1C.[OH2+][Ir]1[n+]2ccccc2-c2[nH]c3ccccc3[n+]21 [3[N,NH-H2O]2+]
pKa2 [1]: 8.44 ± 0.06
pKa1 [1]: 6.08 ± 0.04

N.N.[Cl][Pt][Cl] [cisPt, cisplatin, reference compound]
IC50 [3]: 7 ± 1 µM
IC50 [4]: 60 ± 1 µM
IC50 [5]: 33 ± 6 µM
IC50 [6]: 34 ± 1 µM

C[S+](C)(=O)[Ir]1[O]c2ccccc2-c2[nH]c3ccccc3[n+]21.Cc1c(C)c(C)[c-](C)c1C [7[CO,NH-DMSO]+]
pKa2 [1]: 9.06 ± 0.06

Cc1c(C)c(C)[c-](C)c1C.[OH2+][Ir]1[NH2+]c2ccccc2-c2sc3ccccc3[n+]21 [6[CNH2,S-H2O]2+]
kaq (Cl-complex to H2O-complex) ([2]; aqueous solution): (2.12 ± 0.01) × 10^−4 s-1
pKa1 [1]: 8.70 ± 0.04

C[S+](C)(=O)[Ir]1[c]2ccccc2-c2[nH]c3ccccc3[n+]21.Cc1c(C)c(C)[c-](C)c1C.[Cl-] [1[C,NH-DMSO]+, [(η^5-Cp*)Ir(DMSO)(κ^2-N,C-pbim)]Cl]
pKa2 [1]: 8.44 ± 0.03
Solubility in water (Qualitative solubility): soluble in dimethyl sulfoxide and water

c1ccc(-c2nc3ccccc3[nH]2)cc1 [2-phenylbenzimidazole]
pKa ([1]; deprotonation of the pyridine type N atom, read-out: pKa1): 5.2 ± 0.1
pKa ([1]; pyrrole type N atom, read-out: pKa2): 11.8 ± 0.1
